These are literature values, as cited in patent publication US20050250118A1 (priority 2003, published 2005).

Series [1] concerns AD patients. The following applies: galantamine therapy.
The subject of series [2] is AD patients. Particulars: presence of the ApoE4 polymorphism.

For the molecule `COc1ccc2c3c1O[C@H]1C[C@@H](O)C=C[C@@]31CCN(C)C2` [galantamine], in series [1], the “most common side effects” value was “nausea, vomiting, diarrhea, dizziness and anorexia”. On to `Nc1c2c(nc3ccccc13)CCCC2` [tacrine], for which, in series [2], the “response to treatment with ApoE4 allele present” value is recorded as “reduced response to treatment”.
